Test results from patent US12661345B2, “Compositions for the treatment of hypertension” (The George Institute for Global Health, priority 2017, dated 2026).

Test system: participants with migraine
Assay: Safety: serious adverse events and adverse events of special interest in the 3×3 factorial trial
[1] = Anytime between Week 0 to Week 12, % of participants
[2] = Anytime between Week 0 to Week 12, n/N participants
[3] = Randomization, % of participants
[4] = Randomization, n/N participants

Text: Tolerability: • a. Difference between groups in potentially related side-effects (dizziness, blurred vision, syncope/collapse/fall, ankle edema, skin rash, itching, gout, hyperkalemia, hypokalemia, hyponatremia, myalgia, insomnia, nightmares, rebound hypertension) • b. Difference between groups in participant withdrawals from treatment • 2. Safety: Percentage with any severe adverse event (SAE) • 3.
All participants reported SAEs and adverse events of special interest (AESI) from the time of informed consent until the end of the follow-up period and reported in the case report. AESIs included: • Dizziness • Hypotension • Pedal Edema • Headache • Muscle cramps • Bradycardia • Flushing • Hypersensitivity reactions (skin rashes, itching) • Gastrointestinal complaints • Myalgia • Syncope/Collapse/Fall • Gout • Insomnia • Nightmares • Rebound hypertension • Chest tightness/pain • Tremor/shaking • Irregular heartbeat/tachycardia Statistical Methods Statistical & Analytical Plans

CC(C)NCC(O)COc1cccc2ccccc12 (stereo not shown) [Propranolol, propranolol]
Subjects with any serious adverse event (SAE) in 12 weeks (n/N) (12 weeks): 0/10
Subjects with any serious adverse event (SAE) in 12 weeks (percent) (12 weeks): 0.0%
Any SAEs [1]: (0.0%)
Bradycardia [1]: (10.0%)
Falls [1]: (0.0%)
Flushing [1]: (0.0%)
Gastrointestinal complaints [1]: (30.0%)
Gout [1]: (0.0%)
Headache [1]: (90.0%)
Insomnia [1]: (40.0%)
Muscle cramps [1]: (30.0%)
Myalgia [1]: (20.0%)
Nightmares [1]: (10.0%)
Pedal edema [1]: (0.0%)
Syncope [1]: (10.0%)
Any SAEs [2]: 0/10
Bradycardia [2]: 1/10
Falls [2]: 0/10
Flushing [2]: 0/10
Gastrointestinal complaints [2]: 3/10
Gout [2]: 0/10
Headache [2]: 9/10
Insomnia [2]: 4/10
Muscle cramps [2]: 3/10
Myalgia [2]: 2/10
Nightmares [2]: 1/10
Pedal edema [2]: 0/10
Syncope [2]: 1/10
Any SAEs since the last visit? [3]: (0.0%)
Bradycardia [3]: (0.0%)
Falls [3]: (0.0%)
Flushing [3]: (10.0%)
Gastrointestinal complaints [3]: (0.0%)
Gout [3]: (0.0%)
Headache [3]: (100.0%)
Insomnia [3]: (0.0%)
Muscle cramps [3]: (0.0%)
Myalgia [3]: (0.0%)
Nightmares [3]: (0.0%)
Pedal edema [3]: (0.0%)
Syncope [3]: (0.0%)
Any SAEs since the last visit? [4]: 0/10
Bradycardia [4]: 0/10
Falls [4]: 0/10
Flushing [4]: 1/10
Gastrointestinal complaints [4]: 0/10
Gout [4]: 0/10
Headache [4]: 10/10
Insomnia [4]: 0/10
Muscle cramps [4]: 0/10
Myalgia [4]: 0/10
Nightmares [4]: 0/10
Pedal edema [4]: 0/10
Syncope [4]: 0/10
Any SAEs since the last visit? (Week 4, % of participants): (0.0%)
Bradycardia (Week 4, % of participants): (0.0%)
Falls (Week 4, % of participants): (0.0%)
Flushing (Week 4, % of participants): (0.0%)
Gastrointestinal complaints (Week 4, % of participants): (20.0%)
Gout (Week 4, % of participants): (0.0%)
Headache (Week 4, % of participants): (90.0%)
Insomnia (Week 4, % of participants): (20.0%)
Muscle cramps (Week 4, % of participants): (10.0%)
Myalgia (Week 4, % of participants): (10.0%)
Nightmares (Week 4, % of participants): (0.0%)
Pedal edema (Week 4, % of participants): (0.0%)
Syncope (Week 4, % of participants): (0.0%)
Any SAEs since the last visit? (Week 4, n/N participants): 0/10
Bradycardia (Week 4, n/N participants): 0/10
Falls (Week 4, n/N participants): 0/10
Flushing (Week 4, n/N participants): 0/10
Gastrointestinal complaints (Week 4, n/N participants): 2/10
Gout (Week 4, n/N participants): 0/10
Headache (Week 4, n/N participants): 9/10
Insomnia (Week 4, n/N participants): 2/10
Muscle cramps (Week 4, n/N participants): 1/10
Myalgia (Week 4, n/N participants): 1/10
Nightmares (Week 4, n/N participants): 0/10
Pedal edema (Week 4, n/N participants): 0/10
Syncope (Week 4, n/N participants): 0/10
Any SAEs since the last visit? (Week 8, % of participants): (0.0%)
Bradycardia (Week 8, % of participants): (0.0%)
Falls (Week 8, % of participants): (0.0%)
Flushing (Week 8, % of participants): (0.0%)
Gastrointestinal complaints (Week 8, % of participants): (0.0%)
Gout (Week 8, % of participants): (0.0%)
Headache (Week 8, % of participants): (80.0%)
Insomnia (Week 8, % of participants): (30.0%)
Muscle cramps (Week 8, % of participants): (0.0%)
Myalgia (Week 8, % of participants): (10.0%)
Nightmares (Week 8, % of participants): (0.0%)
Pedal edema (Week 8, % of participants): (0.0%)
Syncope (Week 8, % of participants): (0.0%)
Any SAEs since the last visit? (Week 8, n/N participants): 0/10
Bradycardia (Week 8, n/N participants): 0/10
Falls (Week 8, n/N participants): 0/10
Flushing (Week 8, n/N participants): 0/10
Gastrointestinal complaints (Week 8, n/N participants): 0/10
Gout (Week 8, n/N participants): 0/10
Headache (Week 8, n/N participants): 8/10
Insomnia (Week 8, n/N participants): 3/10
Muscle cramps (Week 8, n/N participants): 0/10
Myalgia (Week 8, n/N participants): 1/10
Nightmares (Week 8, n/N participants): 0/10
Pedal edema (Week 8, n/N participants): 0/10
Syncope (Week 8, n/N participants): 0/10
Any SAEs since the last visit? (Week 12, % of participants): (0.0%)
Bradycardia (Week 12, % of participants): (10.0%)
Falls (Week 12, % of participants): (0.0%)
Flushing (Week 12, % of participants): (0.0%)
Gastrointestinal complaints (Week 12, % of participants): (10.0%)
Gout (Week 12, % of participants): (0.0%)
Headache (Week 12, % of participants): (80.0%)
Insomnia (Week 12, % of participants): (20.0%)
Muscle cramps (Week 12, % of participants): (20.0%)
Myalgia (Week 12, % of participants): (0.0%)
Nightmares (Week 12, % of participants): (10.0%)
Pedal edema (Week 12, % of participants): (0.0%)
Syncope (Week 12, % of participants): (10.0%)
Any SAEs since the last visit? (Week 12, n/N participants): 0/10
Bradycardia (Week 12, n/N participants): 1/10
Falls (Week 12, n/N participants): 0/10
Flushing (Week 12, n/N participants): 0/10
Gastrointestinal complaints (Week 12, n/N participants): 1/10
Gout (Week 12, n/N participants): 0/10
Headache (Week 12, n/N participants): 8/10
Insomnia (Week 12, n/N participants): 2/10
Muscle cramps (Week 12, n/N participants): 2/10
Myalgia (Week 12, n/N participants): 0/10
Nightmares (Week 12, n/N participants): 1/10
Pedal edema (Week 12, n/N participants): 0/10
Syncope (Week 12, n/N participants): 1/10
Any SAEs since the last visit? (Week 13, % of participants): (0.0%)
Bradycardia (Week 13, % of participants): (0.0%)
Falls (Week 13, % of participants): (0.0%)
Flushing (Week 13, % of participants): (0.0%)
Gastrointestinal complaints (Week 13, % of participants): (20.0%)
Gout (Week 13, % of participants): (0.0%)
Headache (Week 13, % of participants): (90.0%)
Insomnia (Week 13, % of participants): (0.0%)
Muscle cramps (Week 13, % of participants): (20.0%)
Myalgia (Week 13, % of participants): (20.0%)
Nightmares (Week 13, % of participants): (0.0%)
Pedal edema (Week 13, % of participants): (10.0%)
Rebound hypertension (Week 13, % of participants): (0.0%)
Syncope (Week 13, % of participants): (0.0%)
Any SAEs since the last visit? (Week 13, n/N participants): 0/10
Bradycardia (Week 13, n/N participants): 0/10
Falls (Week 13, n/N participants): 0/10
Flushing (Week 13, n/N participants): 0/10
Gastrointestinal complaints (Week 13, n/N participants): 2/10
Gout (Week 13, n/N participants): 0/10
Headache (Week 13, n/N participants): 9/10
Insomnia (Week 13, n/N participants): 0/10
Muscle cramps (Week 13, n/N participants): 2/10
Myalgia (Week 13, n/N participants): 2/10
Nightmares (Week 13, n/N participants): 0/10
Pedal edema (Week 13, n/N participants): 1/10
Rebound hypertension (Week 13, n/N participants): 0/10
Syncope (Week 13, n/N participants): 0/10
Any SAEs since the last visit? (Week 16, % of participants): (0.0%)
Bradycardia (Week 16, % of participants): (0.0%)
Falls (Week 16, % of participants): (0.0%)
Flushing (Week 16, % of participants): (0.0%)
Gastrointestinal complaints (Week 16, % of participants): (0.0%)
Gout (Week 16, % of participants): (0.0%)
Headache (Week 16, % of participants): (100.0%)
Insomnia (Week 16, % of participants): (0.0%)
Irregular heartbeat/tachycardia (Week 16, % of participants): (10.0%)
Muscle cramps (Week 16, % of participants): (10.0%)
Myalgia (Week 16, % of participants): (0.0%)
Nightmares (Week 16, % of participants): (0.0%)
Pedal edema (Week 16, % of participants): (0.0%)
Rebound hypertension (Week 16, % of participants): (20.0%)
Syncope (Week 16, % of participants): (0.0%)
Any SAEs since the last visit? (Week 16, n/N participants): 0/10
Bradycardia (Week 16, n/N participants): 0/10
Falls (Week 16, n/N participants): 0/10
Flushing (Week 16, n/N participants): 0/10
Gastrointestinal complaints (Week 16, n/N participants): 0/10
Gout (Week 16, n/N participants): 0/10
Headache (Week 16, n/N participants): 10/10
Insomnia (Week 16, n/N participants): 0/10
Irregular heartbeat/tachycardia (Week 16, n/N participants): 1/10
Muscle cramps (Week 16, n/N participants): 1/10
Myalgia (Week 16, n/N participants): 0/10
Nightmares (Week 16, n/N participants): 0/10
Pedal edema (Week 16, n/N participants): 0/10
Rebound hypertension (Week 16, n/N participants): 2/10
Syncope (Week 16, n/N participants): 0/10
